{
  "source": "patent US11491117B2",
  "about": "“Compounds for the prevention and treatment of glucose intolerance related conditions and obesity” (SORBONNE UNIVERSITÉ, priority 2017, dated 2022)",
  "key": {"[1]": {"test_system": "C57BL/6J mice fed control chow diet (CHD) or high fat diet (HFD)", "assay": "Chronic subcutaneous infusion in mice fed control chow or high fat diet: body growth, glucose homeostasis (IPGTT), insulin secretion, organ weight, liver triglycerides", "type": "in vivo, mouse", "protocol": "Six weeks-old C57BL/6J male mice (Janvier Labs, Courtaboeuf, France) were received and acclimated in specific pathogen free (SPF) maintenance condition. Mice had free access to a standard chow diet (R04-40, Safe, Augy, France) and were kept on 12 h light/dark cycle. After one week, a group of 12 mice was fed control carbohydrate diet (CHD) (D 12450Ki, Research diets, NJ) and a group of 12 mice was fed high fat (60% fat and sucrose) diet (HFD) (D12492i, Research diets, NJ).\nAfter three weeks of metabolite treatment (i.e. four weeks of HFD feeding) an intra-peritoneal glucose tolerance test (IPGTT) (2 g/kg) was performed in conscious mice following an overnight fast. Blood was collected from the tail vein before glucose injection and 15, 30, 60 and 120 minutes afterwards. Additional blood samples were collected during the IPGTT in GK rats 15, 90, 180 and 240 minutes after glucose injection. Blood glucose levels were determined using an Accu-Check® Performa (Roche Diagnostics, Meylan, France). Additional blood samples were collected at base line and 30 minutes after glucose injection in Microvette® CB 300 Lithium Heparin (Sarstedt, Marnay, France). Plasma was separated by centrifugation and stored at −80° C. until insulin radioimmunoassay. Evaluation of overall glucose tolerance was obtained from cumulative glycemia (GCum) and the ΔG, which were determined by the total increment of plasma glucose values during the IPGTT (GCum) and the cumulative glycemia during the test above baseline (ΔG). After six weeks of metabolite treatment, mice were killed by decapitation and organ were dissected and weighed. Half of liver, fat and pancreas samples were snap frozen in liquid nitrogen and stored at −80° C. for molecular studies, and the second half processed for histopathology. All procedures were authorized following review by the institutional ethic committee and carried out under national license condition (Ref 00486.02).\n(§1) Blood glucose was measured using an Accu-Check® Performa (Roche Diagnostics, Meylan, France) and plasma insulin was determined using Insulin ELISA kits (Mercodia, Uppsala, Sweden). For determination of liver triglycerides, liver samples (100 mg) were homogenized and incubated in NonidetP-40 (5%) and supernatants containing triglycerides were collected. Triglycerides concentration was quantified in the supernatant fraction using a colorimetric assay (ab65336, Abcam, Paris, France) by measuring OD at 570 nm. The ratio NAD/NADH was determined using a quantification kit (MAK037; SigmaAldrich, St Quentin, France) on extracts prepared from 20 mg pancreas tissue. Samples were homogenized in the extraction buffer and clarified by centrifugation. Supernatant was deproteinized by filtration through a 10-kDa cutoff spin filter (Millipore SAS, Molsheim, France). The assay was then performed according to the manufacturer's instructions.\nAs expected, mice fed HFD rapidly gained more weight than mice fed control diet and developed fasting hyperglycemia and marked glucose intolerance (FIG. 1A-1F)."}, "pancreas gene expression": {"test_system": "pancreas gene expression", "assay": "Quantitative RT-PCR and NAD/NADH in total pancreas of chronically treated mice", "type": "in vivo, mouse", "protocol": "as §1, with “SigmaAldrich, St Quentin, France) on extracts prepared from 20 mg pancreas tissue.” left out, “instructions. RNA was extracted from pancreas, adipose tissue and liver using the RNeasy RNA Mini Kit (Qiagen, Courtaboeuf, France). Reverse transcription was performed from a 20 μL reaction mixture with 500 ng RNA using M-MLV reverse transcriptase kit (ThermoFisher, Villebon, France). Quantitative RT-PCR was performed using sequence specific primers and the MESA green kit for SYBR green assays (Eurogentec, Angers, France). We used 18S and/or cyclophilin house keeping genes to normalize relative quantification of mRNA levels using the Livak and […] methods ([…], 2001).” for “instructions.”"}, "isolated mouse islets": {"test_system": "isolated mouse islets", "assay": "Incubation of isolated mouse islets: insulin release, insulin content, Ki67 proliferation", "type": "cell-based"}, "[2]": {"details": "mice fed control diet, IPGTT, vs saline"}, "[3]": {"details": "CHD-fed mice, not statistically significant"}},
  "data": [
    {"smiles": "Cc1ccc(O)cc1", "note": "[4-cresol]", "values": [
      {"measurement": "effect on body weight", "setting": "[1]; HFD-fed mice", "result": "strongly significant"},
      {"measurement": "effect on glycemic control", "setting": "[1]; HFD-fed mice", "result": "strongly significant"},
      {"measurement": "effect on insulin secretion", "setting": "[1]; HFD-fed mice", "result": "strongly significant"},
      {"measurement": "liver weight", "setting": "[1]; HFD-fed mice", "result": "reduced"},
      {"measurement": "ΔG parameter", "setting": "[1]; HFD-fed mice, IPGTT, vs HFD saline", "result": "normalized to the level of mice fed chow diet and treated with saline"},
      {"measurement": "fasting glycemia", "setting": "[1]; HFD-fed mice, vs HFD saline", "result": "strong reduction"},
      {"measurement": "fasting hyperinsulinemia", "setting": "[1]; HFD-fed mice, vs HFD saline", "result": "strong reduction"},
      {"measurement": "increase in pancreas weight", "setting": "[1]; both diet groups, 6 weeks, vs saline", "result": 48.9, "unit": "%"},
      {"measurement": "liver triglycerides content", "setting": "[1]; both diet groups, vs saline", "result": "systematic and dramatic reduction"},
      {"measurement": "heart weight", "setting": "[1]; mice fed CHD or HFD, 6 weeks", "result": "not affected"},
      {"measurement": "kidney weight", "setting": "[1]; mice fed CHD or HFD, 6 weeks", "result": "not affected"},
      {"measurement": "acute glycemic response to the glucose challenge", "setting": "[1]; [2]", "result": "significant reduction"},
      {"measurement": "glucose tolerance", "setting": "[1]; [2]", "result": "improved"},
      {"measurement": "BMI", "setting": "[1]; mice fed control diet, end of experiment, vs saline", "result": "significant decrease in BMI"},
      {"measurement": "body weight", "setting": "[1]; mice fed control diet, s.c. infusion 0.5 mg/kg/day, 42 days, vs saline", "result": "progressive reduction in body weight"},
      {"measurement": "glucose-stimulated insulin secretion", "setting": "[1]; mice fed control diet, vs controls", "result": "significant increase"},
      {"measurement": "cumulative glycemia during the IPGTT", "setting": "[1]; mice fed control diet, vs saline", "result": "significant reduction"},
      {"measurement": "expression of Ins1 and Hnf1α in pancreas", "setting": "pancreas gene expression; [3]", "result": "Enhanced expression"},
      {"measurement": "expression of Ucp2 in pancreas", "setting": "pancreas gene expression; [3]", "result": "reduced expression"},
      {"measurement": "transcription of genes encoding amylase, Vegf, Bdnf, IL10 and Sirt1 in pancreas", "setting": "pancreas gene expression; CHD-fed mice, vs saline-treated CHD-fed mice", "result": "increased transcription"},
      {"measurement": "IL10 transcript level in pancreas", "setting": "pancreas gene expression; HFD-fed mice", "result": "remained elevated"},
      {"measurement": "expression of Bdnf, Hnf1α, Pdx1 and Vegf in pancreas", "setting": "pancreas gene expression; HFD-fed mice, differences not statistically significant", "result": "strongly overexpressed"},
      {"measurement": "pancreatic expression of ERα", "setting": "pancreas gene expression; fat fed mice in vivo", "result": "does not regulate significantly"},
      {"measurement": "expression of Ucp2, IL6 and Tnf in pancreas", "setting": "pancreas gene expression; mice fed HFD, vs HFD saline", "result": "significantly reduced expression"},
      {"measurement": "expression of genes encoding Sirt1 and Ins1 in pancreas", "setting": "pancreas gene expression; mice fed HFD, vs HFD saline", "result": "significant overexpression"},
      {"measurement": "DYRK1A pancreatic transcription", "setting": "pancreas gene expression; mice fed control or HFD, chronic treatment", "result": "significant downregulation"},
      {"measurement": "islet cell proliferation (KI67)", "setting": "isolated mouse islets; 10 nM", "result": "significant effect"},
      {"measurement": "increase in insulin release under basal condition", "setting": "isolated mouse islets; 10 nM, 2.8 mM glucose", "result": "+17.3%"},
      {"measurement": "stimulation of insulin secretion in response to glucose", "setting": "isolated mouse islets; 10 nM, glucose 16.6 mM, p=0.06", "result": "+25.8%"},
      {"measurement": "increase in islet insulin content", "setting": "isolated mouse islets; 10 nM, p<0.05", "result": "+33.7%"},
      {"measurement": "insulin production, secretion and content", "setting": "isolated mouse islets; 100 nM", "result": "no effect"}
    ]}
  ]
}
